We go through 13 compounds from publication PMC12644462, “A novel radiosensitizer α-sulfoquinovosyl-acylpropanediol (SQAP) inhibits DNA repair pathways and sensitize cells to cancer chemotherapeutic agents” (Scientific Reports, 2025).

In one series the test system is CML-6M cells. Put plainly: Colony formation assay, drug sensitivity with SQAP. In kind it is cell-based, canine.
The next series relates to CML-6M and STSA-1 cells. Kind of series: Colony formation assay, chemosensitization by SQAP (qualitative). In kind it is cell-based, canine. To be noted: for sensitization of chemotherapeutic agent by SQAP: combined with 30 µM SQAP. The method, then: Sensitivity to radiation or chemical reagents was assessed through colony formation assays. After trypsinized single cells were plated to form 20–200 colonies per dish and then treated with SQAP for 3 h in normoxia or hypoxia, the cells were irradiated. For drug sensitivity study, trypsinized cells were plated and then treated with various dosage of testing agents. After seven days of incubation, colonies were fixed, stained and scored. Regression curves were drawn from survival fraction, and D10 values (doses to achieve 10% cell survival) were calculated by Prism 8 (GraphPad software, San Diego, CA, USA) from at least three independent experiments. Oxygen enhancement ratio (OER) and sensitization enhancement ratio (SER) values were calculated from D10 values. OER values were calculated from the D10 value in hypoxia divided by the D10 value in normoxic condition. SER values were calculated from the D10 value without SQAP divided by the D10 value with SQAP.

For a further series, the system named is STSA-1 cells. Kind of series: Colony formation assay, drug sensitivity with SQAP. The series is classed as cell-based, canine.
The subject of series [1] is Chinese hamster V79 cells. Put plainly: Colony formation assay, radio- and chemosensitization. In kind it is cell-based. The method, then: For hypoxia irradiation, cell cultures were placed in Aneropak Kenki system (Mitsubishi Gas Chemical, Tokyo, Japan) with oxygen meter to confirm pO2 below 0.1%. Cells were kept in hypoxia for 3 h before irradiation.

Counter-ions that a name gives are not always drawn. Like-named read-outs stand apart in the source and are kept apart here.

Method for CML-6M cells: Sensitivity to radiation or chemical reagents was assessed through colony formation assays. After trypsinized single cells were plated to form 20–200 colonies per dish and then treated with SQAP for 3 h in normoxia or hypoxia, the cells were irradiated. For drug sensitivity study, trypsinized cells were plated and then treated with various dosage of testing agents. After seven days of incubation, colonies were fixed, stained and scored[24]. Regression curves were drawn from survival fraction, and D10 values (doses to achieve 10% cell survival) were calculated by Prism 8 (GraphPad software, San Diego, CA, USA) from at least three independent experiments. Oxygen enhancement ratio (OER) and sensitization enhancement ratio (SER) values were calculated from D10 values. OER values were calculated from the D10 value in hypoxia divided by the D10 value in normoxic condition. SER values were calculated from the D10 value without SQAP divided by the D10 value with SQAP.

On to `COc1cccc2c1C(=O)c1c(O)c3c(c(O)c1C2=O)C[C@@](O)(C(=O)CO)C[C@@H]3O[C@H]1C[C@H](N)[C@H](O)[C@H](C)O1` [doxorubicin, Doxorubicin hydrochloride], for which the D10 in the series with CML-6M cells (with 30 µM SQAP) came out at 8.94 nM; in the series with CML-6M cells (without SQAP), 18.0 nM; in the series with STSA-1 cells (STSA-1, with 30 µM SQAP), 4.66 nM; in the series with STSA-1 cells (STSA-1, without SQAP), 8.11 nM. In addition, the “sensitization of chemotherapeutic agent by SQAP” value in the series with CML-6M and STSA-1 cells is on record as “most dramatic sensitization”. On to `C[C@]12C=CC(=O)C=C1CC[C@@H]1[C@@H]2[C@@H](O)C[C@@]2(C)[C@H]1CC[C@]2(O)C(=O)CO` [prednisolone], for which the “cytotoxicity (D10 not available)” value in the series with CML-6M and STSA-1 cells (colony formation) is recorded as “low cytotoxicity”. Besides, in the series on CML-6M and STSA-1 cells, the “sensitization of chemotherapeutic agent by SQAP” value was “no sensitization”.

Turning to `N.N.O=C([O-])C1(C(=O)[O-])CCC1.[Pt+2]` [carboplatin], the “sensitization of chemotherapeutic agent by SQAP” value in the series on CML-6M and STSA-1 cells is listed as “significant sensitization”. Regarding `O=C(O)CCCc1ccc(N(CCCl)CCCl)cc1` [chlorambucil, Chlorambucil], the “sensitization of chemotherapeutic agent by SQAP” value with CML-6M and STSA-1 cells was “no sensitization”. In the case of `CC(=O)O[C@H]1C(=O)[C@@]2(C)[C@H]([C@H](OC(=O)c3ccccc3)[C@]3(O)C[C@H](OC(=O)[C@H](O)[C@@H](NC(=O)c4ccccc4)c4ccccc4)C(C)=C1C3(C)C)[C@]1(OC(C)=O)CO[C@@H]1C[C@@H]2O` [Taxol], the “effect of SQAP on cytotoxicity of the agent” value (from here on “effect of SQAP”) in series [1] is “increased the cytotoxicity”. In the case of `CC[C@@]1(O)C(=O)OCc2c1cc1n(c2=O)Cc2cc3ccccc3nc2-1` [camptothecin, Camptothecin], the “effect of SQAP” value in series [1] (V79, 10 and 20 µM SQAP) is given as “increased the cytotoxicity”. For the same compound, the “change of D10 value of the agent with SQAP treatment” value (“change of D10 value of the agent” for short) in series [1] (V79, P < 0.05) is listed as “significant reduction”. On to `O=C1c2c(O)ccc(O)c2C(=O)c2c(NCCNCCO)ccc(NCCNCCO)c21` [Mitoxantrone, Mitoxantrone dihydrochloride], for which the “sensitization of chemotherapeutic agent by SQAP” value with CML-6M and STSA-1 cells was “significant sensitization”.

For the compound `CO[C@@]12[C@H](COC(N)=O)C3=C(C(=O)C(C)=C(N)C3=O)N1C[C@@H]1N[C@@H]12` [MMC, Mitomycin C], the “effect of SQAP” value in series [1] (V79, 10 and 20 µM SQAP) was “increased the cytotoxicity”.

For the compound bleomycin, in series [1], the “change of D10 value of the agent” value is “significant reduction”; the “sensitization to bleomycin by SQAP” value was “sensitized and not”. Take `COc1cc([C@@H]2c3cc4c(cc3[C@@H](O[C@@H]3O[C@@H]5CO[C@@H](C)O[C@H]5[C@H](O)[C@H]3O)[C@H]3COC(=O)[C@H]23)OCO4)cc(OC)c1O` [etoposide]: in series [1], the “effect of SQAP” value was “increased the cytotoxicity”. For the compound `N.N.[Cl][Pt][Cl]` [cisplatin], in series [1] (V79, P < 0.05), the “change of D10 value of the agent” value was “significant reduction”. On to `COS(C)(=O)=O` [MMS, methyl methanesulfonate], for which the “effect of SQAP” value in series [1] is listed as “increased the cytotoxicity”. For the compound `O=NN(CCCl)C(=O)NC1CCCCC1` [lomustine], the “sensitization of chemotherapeutic agent by SQAP” value with CML-6M and STSA-1 cells is listed as “no sensitization”.
